Series [1] deals with A549/TR. In words: Antiproliferative activity against human A549/Taxol cells overexpressing ABCB1 assessed as cell growth inhibition by MTT assay. The series is classed as functional, cell-based. In general terms: Tetrazolium dyes change colour on reduction, which living cells bring about.
Series [2] deals with A2780/Taxol. In words: Antiproliferative activity against human A2780/Taxol cells overexpressing ABCB1 assessed as cell growth inhibition by MTT assay. The series is classed as functional, cell-based.
For series [3], the system named is A2780/Taxol. In words: Potentiation of paclitaxel induced antiproliferative activity against human A2780/Taxol cells overexpressing ABCB1 assessed as fold reduction in paclitaxel IC50 by MTT assay relative to control. The series is classed as functional.
In series [4] the test system is A549/TR. The experiment in a line: Potentiation of paclitaxel induced antiproliferative activity against human A549/Taxol cells overexpressing ABCB1 assessed as fold reduction in paclitaxel IC50 by MTT assay relative to control.
In series [5] the target is T1, ATP-dependent translocase ABCB1 (Homo sapiens, UniProt P08183). The experiment in a line: Inhibition of ABCB1 efflux pump in human LS180 cells using Rh123 as substrate incubated for 90 mins by fluorescence based assay. Format: cell-based.
In series [6] the test system is L5178Y. In words: Cytotoxicity against multi-drug resistant mouse L5178Y cells expressing ABCB1 assessed as cell growth inhibition incubated for 24 hrs by MTT assay. The series is classed as functional, cell-based.
Series [7] in a line: Reversal of vincristine resistance in human Flp-In-293 cells expressing ABCB1 assessed as fold change in vincristine IC50 in presence of caffeic acid for 30 mins by fluorescence based assay. The settings on record: 0.5 h. The series is classed as functional.
Series [8] in a line: Reversal of paclitaxel resistance in human Flp-In-293 cells expressing ABCB1 assessed as fold change in paclitaxel IC50 in presence of caffeic acid for 30 mins by fluorescence based assay. The conditions noted are these: 0.5 h. Format: functional.
A short description of series [9]: Reversal of […] in human Flp-In-293 cells expressing ABCB1 assessed as fold change in doxorubicin IC50 in presence of caffeic acid for 30 mins by fluorescence based assay. The conditions noted are these: 0.5 h. The series is classed as functional.
Series [10] is described as follows: Reversal of vincristine resistance in human Flp-In-293 cells expressing ABCB1 assessed as cell growth inhibition in presence of caffeic acid for 30 mins by fluorescence based assay. Format: functional. The conditions noted are these: Flp-In-293, 0.5 h.
Series [11] is described as follows: Reversal of paclitaxel resistance in human Flp-In-293 cells expressing ABCB1 assessed as cell growth inhibition in presence of caffeic acid for 30 mins by fluorescence based assay. The series is classed as functional. The settings on record: Flp-In-293, 0.5 h.
Series [12] can be described thus: Reversal of doxorubicin resistance in human Flp-In-293 cells expressing ABCB1 assessed as cell growth inhibition in presence of caffeic acid for 30 mins by fluorescence based assay. The series is classed as functional. The settings on record: Flp-In-293, 0.5 h.
The target in series [13] is T1, ATP-dependent translocase ABCB1. The experiment in a line: Inhibition of P-gp1 efflux in human Flp-In-293 cells using rhodamine as substrate assessed as increase in intracellular accumulation of rhodamine 123 preincubated for 30 mins followed by substrate addition and measured for 10 mins by fluorescence based assay. Format: cell-based.
Series [14] shares this target. In words: Inhibition of P-gp1 efflux in human Flp-In-293 cells using calcein-AM as substrate assessed as increase in intracellular accumulation of calcein-AM preincubated for 30 mins followed by substrate addition and measured for 30 mins by fluorescence based assay. The series is classed as cell-based.
Series [15] can be described thus: Antiproliferative activity against daunorubicin-resistant human EPG85-257 cells incubated for 72 hrs by annexin-V-PI staining based flow cytometry. The series is classed as functional, EPG85-257RDB. (A flow cytometer gives signals particle by particle.)
The nature of series [16]: cells. The settings on record: Homo sapiens, EPP85-181RDB, 72 h.
Description: Antiproliferative activity against daunorubicin-resistant human EPP85-181 cells incubated for 72 hrs by annexin-V-PI staining based flow cytometry
Series [17] can be described thus: Antiproliferative activity against human Flp-In-293 cells expressing ABCB1 assessed as cell growth inhibition incubated for 72 hrs by SRB assay. The series is classed as toxicity, cell-based. (In general: The SRB assay estimates cell density from bound dye.)
A further series relates to HeLa S3. In words: cells. The settings on record: Homo sapiens, HeLa S3, 72 h.
Series [18] is described as follows: cells. The settings on record: Homo sapiens, KBVIN, 72 h.
Description: Antiproliferative activity against multidrug-resistant human KB-VIN cells assessed as cell growth inhibition incubated for 72 hrs by SRB assay
The next series concerns 4T1. In words: Antitumor activity against mouse 4T1 cells implanted in Balb/c mouse assessed as tumor growth inhibition at 4 mg/kg administered once for every two days measured after 15 days by immunohistochemical analysis relative to control. Format: functional. The settings on record: 4T1, 360 h, time 15 day.
In series [19] the target is T1, ATP-dependent translocase ABCB1. The experiment in a line: Inhibition of ABCB1 in human HEK293 cells in the presence of doxorubicin. Format: cell-based.
The subject of series [20] is L5178Y. The experiment in a line: Cytotoxicity against multidrug-resistant mouse L5178Y cells expressing ABCB1 assessed as cell growth inhibition incubated for 24 hrs by MTT assay. The series is classed as functional, cell-based.
The target in series [21] is T1, ATP-dependent translocase ABCB1. The experiment in a line: Inhibition of ABCB1 in multi-drug resistance human HL-60 cells assessed as increase in daunorubicin accumulation. The series is classed as cell-based.

In brackets after ≈: the same amount, converted by molar mass.

T1 sequence (P08183 whole entry): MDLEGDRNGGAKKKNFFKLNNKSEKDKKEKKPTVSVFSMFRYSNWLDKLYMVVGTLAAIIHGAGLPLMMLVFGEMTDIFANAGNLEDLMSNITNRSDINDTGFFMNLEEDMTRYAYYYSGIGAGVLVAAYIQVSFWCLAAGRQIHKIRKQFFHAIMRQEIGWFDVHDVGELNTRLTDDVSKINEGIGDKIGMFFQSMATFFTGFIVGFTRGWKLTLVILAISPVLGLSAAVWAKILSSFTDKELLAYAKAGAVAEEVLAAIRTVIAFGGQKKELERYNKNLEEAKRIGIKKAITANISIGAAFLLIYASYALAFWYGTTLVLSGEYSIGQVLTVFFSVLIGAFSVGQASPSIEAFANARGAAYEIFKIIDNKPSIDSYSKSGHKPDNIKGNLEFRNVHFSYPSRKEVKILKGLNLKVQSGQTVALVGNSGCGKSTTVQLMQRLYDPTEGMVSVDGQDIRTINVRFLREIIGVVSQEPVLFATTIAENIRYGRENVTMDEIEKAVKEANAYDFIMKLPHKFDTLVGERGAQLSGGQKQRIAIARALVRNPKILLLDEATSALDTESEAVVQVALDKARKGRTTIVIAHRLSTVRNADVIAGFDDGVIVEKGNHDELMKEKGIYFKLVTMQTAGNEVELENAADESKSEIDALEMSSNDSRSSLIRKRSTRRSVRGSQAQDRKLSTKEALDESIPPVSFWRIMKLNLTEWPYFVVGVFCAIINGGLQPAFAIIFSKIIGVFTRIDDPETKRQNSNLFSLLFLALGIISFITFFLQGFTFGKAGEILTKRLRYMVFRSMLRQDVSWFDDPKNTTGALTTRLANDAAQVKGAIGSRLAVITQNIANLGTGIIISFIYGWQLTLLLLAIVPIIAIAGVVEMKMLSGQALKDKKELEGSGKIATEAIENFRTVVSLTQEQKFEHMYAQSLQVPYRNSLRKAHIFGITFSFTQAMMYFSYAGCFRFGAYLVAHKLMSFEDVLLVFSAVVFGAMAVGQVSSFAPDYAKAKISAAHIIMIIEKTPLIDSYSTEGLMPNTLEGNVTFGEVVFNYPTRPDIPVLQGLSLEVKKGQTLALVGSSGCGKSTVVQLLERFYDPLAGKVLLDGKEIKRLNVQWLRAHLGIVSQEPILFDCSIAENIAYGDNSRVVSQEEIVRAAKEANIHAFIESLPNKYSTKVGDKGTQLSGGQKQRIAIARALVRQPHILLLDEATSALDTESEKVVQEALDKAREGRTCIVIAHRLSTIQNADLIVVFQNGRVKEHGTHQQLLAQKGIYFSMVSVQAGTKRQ
Description for HeLa S3: Antiproliferative activity against drug-sensitive human HeLaS3 cells assessed as cell growth inhibition incubated for 72 hrs by SRB assay

As a reminder, the IC50 is the midpoint of a concentration-inhibition curve. With `COc1ccc(-c2cc(=O)c3c(OC)c(OC)c(OC)c(OC)c3o2)cc1OC` [NOBILETIN], the concentration for half-maximal inhibition (IC50) with A549/TR [1] and with A2780/Taxol [2] was 9000 nM each time. Also, the “fold change (FC)” value in the series on A2780/Taxol [3] and with A549/TR [4] was 15.92 in each case.
A word on the EC50: it is the midpoint of the concentration-response curve. A lower EC50 goes with an effect from little substance. In turn, `O=C(Nc1ccc(F)cc1)c1sccc1Nc1cccc2c1OCCO2` registered an EC50 in series [5] of 35000 nM.
On to `O=C(C(C(=O)C(F)(F)C(F)(F)C(F)(F)F)=P(c1ccccc1)(c1ccccc1)c1ccccc1)c1ccccc1`, for which the IC50 in the series with L5178Y [6] was 42.4 µg/mL (≈ 73.5 µM).
On to `O=C(O)/C=C/c1ccc(O)c(O)c1` [CAFFEIC ACID], for which the “fold change (FC)” value in series [7] was 3.9; in series [8], 4.96; in [9], 15.11. Further, the IC50 was found to be 198 nM in series [10], 125 nM in series [11] and 597 nM in [12].
`COc1cc(/C=C/C(=O)CC(=O)/C=C/c2ccc(O)cc2)ccc1O`: the IC50 in series [13] and in series [14] was 1560 nM each time.
As for `C=C1[C@H](OC(=O)C(C)C)C[C@@H](OC(=O)c2cccnc2)C(C)(C)/C=C/[C@@H](C)C(=O)[C@@]2(OC(C)=O)C[C@H](C)[C@H](OC(C)=O)[C@@H]2[C@H]1OC(C)=O`, the IC5 in series [15] is 1.8 µM. Further, in the series “cells [16]”, the IC50 stood at 4800 nM.
For `CC(=O)O[C@H]1C(=O)[C@@]2(C)[C@H]([C@H](OC(=O)c3ccccc3)[C@]3(O)C[C@H](OC(=O)[C@H](O)[C@@H](NC(=O)c4ccccc4)c4ccccc4)C(C)=C1C3(C)C)[C@]1(OC(C)=O)CO[C@@H]1C[C@@H]2O` [PACLITAXEL], in series [17], the IC50 at 72 h is below 40000 nM. The IC50 in the series with HeLa S3 and in “cells [18]” was below 40000 nM throughout.
Broadly, the inhibition in vivo is the percentage by which the read-out fell short of the control. Regarding `CC(=O)O[C@@H]1C[C@H](O)[C@@]23CO[C@@H](O)[C@]1(C)[C@@H]2C[C@@H](O)[C@]1(C)[C@@H]3C(=O)[C@H](OC(C)=O)[C@@]2(C)[C@H](c3ccoc3)C[C@H]3O[C@]321` [TOOSENDANIN], the inhibition in vivo at 4 mg/kg in the series with 4T1 came out at 90%.
Turning to `COc1ccc2cc1Oc1ccc(cc1)C[C@H]1c3cc(c(OC)cc3CCN1C)Oc1c(OC)c(OC)c(OC)c3c1[C@H](C2)N(C)CC3` [HERNANDEZINE], the half-inhibitory concentration (IC50) in series [19] was 25 nM.
`C#CCn1c(-c2ccc(OC)cc2)nc2cc(Br)cnc21`: the IC50 in the series with L5178Y [20] was 200 nM.
In the case of `CO[C@@H]1[C@H](N(C)C(=O)c2ccccc2)C[C@H]2O[C@]1(C)n1c3ccccc3c3c4c(c5c6ccccc6n2c5c31)C(=O)NC4` [MIDOSTAURIN], in series [21], the 50% inhibitory concentration (IC50) amounted to 68 nM.
Take `O=C(Nc1ccc(F)cc1)c1sccc1Nc1cccc2c1OCO2`: the EC50 in series [5] is 35000 nM.

Source of the values: ChEMBL document CHEMBL5346860, “Cancer multidrug-resistance reversal by ABCB1 inhibition: A recent update” (Eur J Med Chem, 2022).
